What was measured:
m4 receptor = target: T1, m4 receptor (Homo sapiens, UniProt P08173); experiment: NIH 3T3 cells transfected with m4 muscarinic receptor and Gq-i5; assay type: cell-based
T1 construct: expressed in transfected cells; host or cells: NIH 3T3 (ATCC CRL 1658)
T1 sequence (P08173 1-479): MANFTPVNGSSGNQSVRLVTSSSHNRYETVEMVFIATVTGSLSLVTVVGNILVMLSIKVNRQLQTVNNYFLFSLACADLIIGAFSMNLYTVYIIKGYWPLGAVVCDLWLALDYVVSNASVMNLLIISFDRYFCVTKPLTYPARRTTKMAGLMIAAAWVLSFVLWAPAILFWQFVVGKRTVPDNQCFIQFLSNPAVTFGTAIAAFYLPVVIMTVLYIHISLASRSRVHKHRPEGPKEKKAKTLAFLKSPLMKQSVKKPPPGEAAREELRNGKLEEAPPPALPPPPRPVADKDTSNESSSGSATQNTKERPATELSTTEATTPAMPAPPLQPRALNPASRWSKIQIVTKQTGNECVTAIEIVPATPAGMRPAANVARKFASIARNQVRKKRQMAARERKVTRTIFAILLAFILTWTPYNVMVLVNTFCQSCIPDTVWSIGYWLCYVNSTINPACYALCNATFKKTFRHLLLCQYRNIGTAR
Procedure: Transfection of cells with muscarinic receptor DNAs (general procedure) NIH 3T3 cells (available from the American Type Culture Collection as ATCC CRL 1658) were grown at 37° C. in a humidified atmosphere (5% CO2) incubator in Dulbecco's modified Eagle's medium (DMEM) supplemented with 4.5 g/l glucose, 4 mM glutamine, 50 units/m1 penicillin, 50 units/m1 streptomycin (available from Advanced Biotechnologies, Inc., Gaithersburg, Md.) and 10% calf serum (available from Sigma, St. Louis, […].). The cells were treated with trypsin-EDTA, spun down and plated at 2×10^6 per 15 cm dish in 20 m1 of DMEM containing 10% calf serum.
The m1-m5 muscarinic receptor subtypes were cloned substantially as described by Bonner et al., Science 237, 1987, p. 527, and Bonner et al., Neuron 1, 1988, p. 403. For the m2 and m4 receptors, the cells were co-transfected with DNA encoding a chimera between the Gq protein and the five carboxy-terminal amino acids of the Gi protein (the Gq-i5 construct is described by Conklin et al., Nature 363, 1993, p.274).
On day one, the cells were transfected using the Superfect transfection reagent (available from Qiagen, Valencia, Calif.) in accordance with the manufacturer's instructions. […]

[1] = target: T2, α-adrenergic receptor subtype 2B (Homo sapiens, UniProt P18089); experiment: Test against other receptors: α-adrenergic 2B; assay type: cell-based
T2 sequence (P18089 1-450): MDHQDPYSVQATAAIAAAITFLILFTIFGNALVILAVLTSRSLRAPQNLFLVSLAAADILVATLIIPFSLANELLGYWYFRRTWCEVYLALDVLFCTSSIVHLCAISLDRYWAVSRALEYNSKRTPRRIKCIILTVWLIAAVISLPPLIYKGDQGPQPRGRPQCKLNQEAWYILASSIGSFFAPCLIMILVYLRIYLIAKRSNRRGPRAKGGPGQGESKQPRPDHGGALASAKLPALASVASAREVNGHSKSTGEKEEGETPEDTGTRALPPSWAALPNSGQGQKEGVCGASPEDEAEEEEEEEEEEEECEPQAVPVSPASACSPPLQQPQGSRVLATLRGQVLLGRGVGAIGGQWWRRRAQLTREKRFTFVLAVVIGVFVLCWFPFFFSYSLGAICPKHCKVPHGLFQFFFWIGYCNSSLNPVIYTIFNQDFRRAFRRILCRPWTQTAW

CCCCC1CCN(CCCC(=O)c2ccccc2C)CC1 [Compound A, 4-n-Butyl-1-[4-(2-methylphenyl)-4-oxo-1-butyl]piperidine]
antagonism of carbachol-induced responses (m4 receptor): not an antagonist
agonist activity [1]: no significant activity
inhibition of receptor responses (antagonist experiments) [1]: did not inhibit
